Test results from patent US12169166B2, “Fluorogenic cyanine compounds for detecting nucleic acids” (AAT Bioquest, Inc., priority 2021, dated 2024).
Entries after “also recorded” stand apart in the source; their conditions may differ.

Experiments:
Calf thymus DNA [1] = test: Fluorescence emission spectra in the presence or absence of DNA; assay type: binding; settings: dye 5 ug/ml, DNA 3 ug/ml, Tris Buffer pH=8.0 (FIG. 2)
Method: Absorption and fluorescence spectra of cyanine compounds are measured in the presence or absence of DNA in Tris buffer (pH=8.0). […]

Calf thymus DNA [2] = test: DNA responses in solution (fluorescence vs DNA concentration); assay type: binding; settings: Tris Buffer pH=8.0, serial DNA dilutions, microtiter plate reader (FIG. 3)
Method: The fluorescence intensities of Compound 5 are measured in the presence of serial dilutions of a DNA sample (0, 3.12, 6.25, 12.5, 25, 50, 100, 1000 ng/ml).
The fluorescence of a cyanine compound in 100 μL of Tris Buffer (pH=8.0) are measured in the presence of 0, 0.21, 0.62, 1.85, 5.6, 16.7, and 50 μg/ml final concentrations of Calf thymus DNA with a microtiter plate reader. The fluorescence is plotted against DNA concentration.

[3] = system: pGL3 Control vector (Promega) DNA; test: Pre-cast DNA gel staining; assay type: binding; settings: 0.9% agarose, dye 1 μg/ml; for sensitivity for detecting DNA on gel compared with TO, pre-cast gel staining: same conditions as TO; for amount of DNA clearly detected per lane, pre-cast gel staining: 300 nm UV transilluminator (FIG. 4)
Method: FIGS. 4A-4B show a representation of pre-cast DNA gel staining with Compound 5 versus Thiazole Orange. Serial dilutions of a DNA sample (86, 43, 21.5, 10.7, 5.3, 2.6, 1.3, 0.5 ng/lane) are detected with Thiazole Orange or Compound 5. Compound 5 can clearly detect 5.3 ng DNA while TO can only detect 43 ng.
An agarose gel solution (0.9% agarose) is prepared following a standard protocol (J. Roskams et al., Lab Ref A Handbook of Recipes, Reagents, and Other Reference Tools for Use at the Bench, Cold Spring Harbor Laboratory Press, Cold Spring Harbor, N.Y., 2002). A stock solution of a cyanine dye in DMSO is prepared. An aliquot of the stock solution of dye is added to the gel solution, while it is hot, resulting in an effective working concentration of the dye (1 μg/ml). The resulting solution is thoroughly mixed by swirling. The resulting gel solution is poured onto a gel slab to cast the gel. Serial two-fold dilutions of pGL3 Control vector (Promega) are made and the resulting DNA samples are loaded onto the gel in eight lanes from left to right with a loading of 86, 43, 21.5, 10.7, 5.3, 2.6, 1.3, 0.5 ng/lane, respectively. The DNA samples are electrophoretically separated in 1×TAE buffer using a standard protocol. The resulting gel is then viewed using a UV transilluminator with 300 nm excitation. Photographs of the illuminated gels are taken with an EB filter.

[4] = system: pGL3 Control vector (Promega) DNA; test: Post-DNA gel staining; assay type: binding; settings: 0.9% agarose, dye 1 ug/ml, same conditions as TO
Method: FIGS. 5A-5B show a representation of post-DNA gel staining with Compound 5 versus Thiazole Orange. Serial dilutions of a DNA sample (86, 43, 21.5, 10.7, 5.3, 2.6, 1.3, 0.5 ng/lane) are detected with Thiazole Orange or Compound 5. Compound 5 can clearly detect 1.3 ng DNA while TO can only detect 21.5 ng.
Agarose gels (0.9% agarose) are prepared following a standard protocol (J. Roskams et al., Lab Ref A Handbook of Recipes, Reagents, and Other Reverence Tools for Use at the Bench, Cold Spring Harbor Laboratory Press, Cold Spring Harbor, N.Y., 2002). Serial two-fold dilutions of pGL3 Control vector (Promega) are made and the resulting DNA samples are loaded onto an agarose gel in eight lanes from left to right with a loading of 86, 43, 21.5, 10.7, 5.3, 2.6, 1.3, 0.5 ng/lane, respectively. The DNA samples are electrophoretically separated in 1×TAE buffer using a standard protocol. A stock solution of a cyanine dye in DMSO at about 12 mM concentration is prepared. The stock solution of dye is diluted using an appropriate aqueous solvent to provide a staining solution with an appropriate effective working concentration of the dye (1 ug/ml). The agarose gel is submerged in the staining solution for approximately 30 minutes to stain the gel. The resulting gel is then viewed using a UV transilluminator with 300 nm excitation. […]

HeLa cells [5] = test: Cellular nucleic acid staining of live and fixed cells; assay type: cell-based; settings: dye 1 μg/ml in PBS, live or fixed HeLa cells, 30 min, fluorescence microscope (FIG. 6)
Method: A cyanine dye (1 μg/ml) in PBS buffer is incubated with live or fixed HeLa cells in 96-well plate for 30 min respectively. The fluorescence image of cells is taken with a fluorescence microscope.
A cyanine dye (1 μg/ml) in PBS buffer (prepared from 1 mM DMSO stock solution) is incubated with live and fixed HeLa cells in 96-well plate for 30 min respectively.

HeLa cells [6] = test: Cellular cytotoxicity (cell viability, WST kit); assay type: cell-based; settings: 0-100 ug/mL dye, 24 hours (FIG. 7)
Method: HeLa cells are plated in a 96-well plate (100 μL volume). Next day, to each 100 ul of cells is added 100 ul cyanine solution to make a series of cell samples with the final cyanine dye concentrations of 0, 0.31, 0.62, 1.6, 3.12, 6.25, 12.5, 25, 50, 100 ug/mL respectively. The cell viabilities are measured and plotted for each sample.
HeLa cells are plated in a 96-well plate (100 μL volume). Next day, to each 100 ul of cells is added 100 ul cyanine solution to make a serial cell samples with the final cyanine dye concentrations of 0, 0.31, 0.62, 1.6, 3.12, 6.25, 12.5, 25, 50, 100 ug/mL respectively (total volume is 200 μL for each sample), The cells are incubated in the cyanine-containing media for 24 hours. The cell viabilities are measured with Cell Meter™ Colorimetric WST-5′ Cell Quantification Kit (AAT Bioquest) according to the product instruction.

S. typhimurium = test: Mutagenicity test with S9 liver extract, colony count; assay type: cell-based; settings: 0.2, 1 and 5 ug/plate, 48 hours at 37° C. (FIG. 8)
Method: Mutagenicity tests are performed as described in Example 23.
Tubes of top agar are liquified and cooled to 55-60° C. 0.3 mL of histidine/biotin stock (Presque Isle Cultures) is added alongside 20 uL of S9 liver extract. (Sigma). To the top agar tubes 0.1 mL of S. typhimurium (Grown overnight at 37° C. in TSB culture) is added with 1 mL serological pipette. The mixture is thoroughly mixed by vortexing at low speed. The culture mixture is poured into the plates of the glucose-minimal salts agar plates. With the sterile loops, a disk on its edge is placed near the center of the plate. A serial concentrations of cyanine compounds (0.2, 1 and 5 ug/plate) are added to saturate the disk with a sterile Pasteur pipette. Sterile water is used with the same volume as a negative control. The plates are incubated for 48 hours at 37° C., and the colonies are counted near the disk.

| SMILES | fluorescence enhancement in the presence vs absence of DNA, compared with TO (Calf thymus DNA [1]) | fluorescence signal in response to increasing DNA concentrations, compared with TO (Calf thymus DNA [2]) | sensitivity for detecting DNA on gel compared with TO, pre-cast gel staining [3] | sensitivity for detecting DNA on gel compared with TO, post-gel staining [4] | live cell permeability (HeLa cells [5]) | cell toxicity compared with SYBR Green (HeLa cells [6]) | mutagenicity compared with SYBR Green (S. typhimurium) | amount of DNA clearly detected per lane, pre-cast gel staining [3] [ng] |
| --- | --- | --- | --- | --- | --- | --- | --- | --- |
| OCCCCN1C(c2ccccc2)=C/C(=C\c2sc3ccccc3[n+]2CCCCO)c2ccccc21 [Compound 4] | stronger fluorescence enhancements than TO | stronger fluorescence signals than TO; also recorded: linearly responded to the DNA concentrations with better sensitivity than TO | significantly higher sensitivity for detecting DNA on a gel than TO; also recorded: much higher sensitivity for detecting DNA on gel than TO | significantly higher sensitivity for detecting DNA on gel than TO; also recorded: much higher sensitivity for detecting DNA on gel than TO | cell impermeability | lower cell toxicity compared to SYBR Green; also recorded: much lower cell toxicity than SYBR Green | significantly lower mutagenicity than SYBR Green; also recorded: much lower mutagenicity than SYBR Green | – |
| NCCCCN1C(c2ccccc2)=C/C(=C\c2sc3ccccc3[n+]2CCCCN)c2ccccc21 [Compound 5] | stronger fluorescence enhancements than TO | significantly higher fluorescence signals than Thiazole orange (TO); also recorded: stronger fluorescence signals than TO | – | – | live cell impermeant | significantly lower cell toxicity than SYBR Green; also recorded: much lower cell toxicity than SYBR Green | significantly lower mutagenicity than SYBR Green; also recorded: much low mutagenicity than SYBR Green | 5.3 |
| CC(=O)NCCCCN1C(c2ccccc2)=C/C(=C\c2sc3ccccc3[n+]2CCCCNC(C)=O)c2ccccc21 [Compound 6] | stronger fluorescence enhancements than TO | stronger fluorescence signals than TO | significantly higher sensitivity for detecting DNA on a gel than TO; also recorded: much higher sensitivity for detecting DNA on gel than TO | significantly higher sensitivity for detecting DNA on gel than TO; also recorded: much higher sensitivity for detecting DNA on gel than TO | cell impermeability | lower cell toxicity compared to SYBR Green; also recorded: much lower cell toxicity than SYBR Green | significantly lower mutagenicity than SYBR Green; also recorded: much lower mutagenicity than SYBR Green | – |
| CN1/C(=C/c2cc[n+](C)c3ccccc23)Sc2ccccc21 [TO, Thiazole Orange, reference compound] | – | – | – | – | can readily penetrate the cells | – | – | 43 |
